Literature values in US10960082B2, “Tridentate connexon and use thereof” (NEWBIO THERAPEUTICS, INC., priority 2013, dated 2021).

System: human carcinoma lines

**Q.** With `COc1cccc2c1C(=O)c1c(O)c3c(c(O)c1C2=O)C[C@@](O)(C(=O)CO)C[C@@H]3O[C@H]1C[C@H](N)[C@H](O)[C@H](C)O1` [doxorubicin] as the compound, how does the IC50 read?
**A.** 100 to 200 nM
